Reference: ChEMBL document CHEMBL1146669, “The development of potent non-peptidic PTP-1B inhibitors” (Bioorg Med Chem Lett, 2004)
Several values for one entry are separate records, joined by “and”; a condition that tells them apart may be missing. Identical values can stand only once.

Key:
[1] = molecular target: T1, Tyrosine-protein phosphatase non-receptor type 1 (Homo sapiens, UniProt P18031); experiment: In vitro inhibitory activity against protein tyrosine phosphatase 1B (PTP1B) was determined in fluorescein diphosphate (FDP) assay
T1 sequence (P18031 whole entry): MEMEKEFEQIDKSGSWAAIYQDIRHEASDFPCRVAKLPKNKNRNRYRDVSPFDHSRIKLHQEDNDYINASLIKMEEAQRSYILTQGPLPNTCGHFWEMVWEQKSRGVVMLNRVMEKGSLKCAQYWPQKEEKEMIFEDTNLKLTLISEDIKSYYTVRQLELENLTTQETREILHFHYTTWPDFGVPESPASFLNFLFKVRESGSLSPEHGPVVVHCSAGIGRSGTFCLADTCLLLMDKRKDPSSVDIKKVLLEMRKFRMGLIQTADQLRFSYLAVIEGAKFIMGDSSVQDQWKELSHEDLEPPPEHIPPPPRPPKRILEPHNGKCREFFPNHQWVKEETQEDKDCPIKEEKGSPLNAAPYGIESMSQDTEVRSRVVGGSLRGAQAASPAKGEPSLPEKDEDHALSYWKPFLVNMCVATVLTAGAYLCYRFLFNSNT

[2] = molecular target: T2, Receptor-type tyrosine-protein phosphatase C (Homo sapiens, UniProt P08575); experiment: In vitro inhibitory activity against CD45 protein-tyrosine phosphatase
T2 sequence (P08575 whole entry): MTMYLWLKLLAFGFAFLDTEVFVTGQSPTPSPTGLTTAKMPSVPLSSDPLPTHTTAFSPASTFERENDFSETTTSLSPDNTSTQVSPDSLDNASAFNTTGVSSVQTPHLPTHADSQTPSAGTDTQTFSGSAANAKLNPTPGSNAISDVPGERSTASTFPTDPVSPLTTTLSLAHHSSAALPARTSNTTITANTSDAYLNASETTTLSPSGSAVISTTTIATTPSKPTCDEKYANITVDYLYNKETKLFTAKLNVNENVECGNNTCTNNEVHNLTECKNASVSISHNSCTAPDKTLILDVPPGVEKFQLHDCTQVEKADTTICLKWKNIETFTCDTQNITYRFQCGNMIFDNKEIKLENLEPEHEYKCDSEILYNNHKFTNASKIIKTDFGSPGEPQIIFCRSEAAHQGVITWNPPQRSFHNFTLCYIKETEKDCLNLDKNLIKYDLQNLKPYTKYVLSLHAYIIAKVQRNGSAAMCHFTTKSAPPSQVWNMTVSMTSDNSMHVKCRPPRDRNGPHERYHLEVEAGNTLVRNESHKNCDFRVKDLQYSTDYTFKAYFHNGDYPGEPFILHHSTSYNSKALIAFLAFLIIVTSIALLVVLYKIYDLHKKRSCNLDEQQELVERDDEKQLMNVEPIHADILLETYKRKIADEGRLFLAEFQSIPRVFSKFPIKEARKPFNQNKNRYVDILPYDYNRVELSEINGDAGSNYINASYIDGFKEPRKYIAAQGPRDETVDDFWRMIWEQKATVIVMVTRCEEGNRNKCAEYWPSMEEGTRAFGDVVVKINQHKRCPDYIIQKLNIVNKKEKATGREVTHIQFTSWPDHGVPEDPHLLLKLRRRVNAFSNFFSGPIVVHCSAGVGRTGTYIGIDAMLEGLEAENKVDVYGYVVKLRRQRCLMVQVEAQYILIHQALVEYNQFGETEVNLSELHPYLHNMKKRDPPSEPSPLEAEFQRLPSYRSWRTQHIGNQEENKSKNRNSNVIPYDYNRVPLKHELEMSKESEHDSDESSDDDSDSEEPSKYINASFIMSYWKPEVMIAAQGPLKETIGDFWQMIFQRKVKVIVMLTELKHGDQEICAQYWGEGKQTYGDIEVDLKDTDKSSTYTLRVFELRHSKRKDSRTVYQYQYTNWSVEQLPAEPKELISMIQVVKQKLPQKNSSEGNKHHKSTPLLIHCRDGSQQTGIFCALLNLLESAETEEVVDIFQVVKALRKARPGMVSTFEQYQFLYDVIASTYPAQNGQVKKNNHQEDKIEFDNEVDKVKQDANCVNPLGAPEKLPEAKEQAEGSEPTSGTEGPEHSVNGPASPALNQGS

[3] = molecular target: T1, Tyrosine-protein phosphatase non-receptor type 1; experiment: In vitro inhibitory activity against Protein tyrosine phosphatase 1B (PTP1B) over-expressed in intact Sf9 cell assay
[4] = Half life in ob/ob mice; assay type: ADME, organism-based; details: mouse, in vivo
[5] = Oral bioavailability in rat; assay type: ADME, organism-based; details: in vivo
[6] = Maximal concentration in rat was determined; assay type: ADME, organism-based; details: in vivo
[7] = In vitro inhibitory activity against Protein tyrosine phosphatase 1B (PTP1B) over-expressed in intact Sf9 cell assay; NA denotes not active

IC50 [1]	IC50 [2] [µM]	IC50 [3]	half-life [4] [min]	IC50 [7]	SMILES	bioavailability [5] [%]	Cmax [6] [µM]
0.19 µM	> 50	1 µM	< 30	–	COC(=O)C(Cc1ccc(C(F)(F)P(=O)(O)O)cc1)(Cc1ccc(C(F)(F)P(=O)(O)O)cc1)C(=O)OCc1ccccc1	–	–
0.19 µM	5.5	2 µM	–	–	O=C(c1ccccc1)C(C/C=C/c1ccccc1)(Cc1ccc(C(F)(F)P(=O)(O)O)cc1)c1ccccc1 (configuration not stated)	–	–
0.11 µM	> 50	1.65 µM	–	–	CC(C)OC(=O)C(Cc1ccc(C(F)(F)P(=O)(O)O)cc1)(Cc1ccc(C(F)(F)P(=O)(O)O)cc1)C(=O)OC(C)C	–	–
0.09 µM	25	1.7 µM	–	–	CC(=O)NS(=O)(=O)c1ccc(CC(Cc2ccc(C(F)(F)P(=O)(O)O)cc2)(C(=O)OCc2ccccc2)C(=O)OCc2ccccc2)cc1	–	–
0.16 µM	> 50	1.3 µM	–	–	O=P(O)(O)C(F)(F)c1ccc(CC(Cc2ccc(C(F)(F)P(=O)(O)O)cc2)(OCc2ccccc2)OCc2ccccc2)cc1	–	–
0.06 µM and 0.19 µM	> 50	0.58 µM and 1.5 µM	–	–	O=C(c1ccccc1)C(Cc1ccc(C(F)(F)P(=O)(O)O)cc1)(Cc1ccc(C(F)(F)P(=O)(O)O)cc1)c1ccccc1	–	–
0.39 µM	> 50	3.8 µM	–	–	COC(=O)C(Cc1ccc(C(F)(F)P(=O)(O)O)cc1)(Cc1ccc(C(F)(F)P(=O)(O)O)cc1)C(=O)O	–	–
0.06 µM	19	0.54 µM	–	–	O=C(OCc1ccccc1)C(Cc1ccc(C(F)(F)P(=O)(O)O)cc1)(Cc1ccc(C(F)(F)P(=O)(O)O)cc1)C(=O)OCc1ccccc1	–	–
0.94 µM	> 50	7.2 µM	–	–	CS(=O)(=O)c1ccc(CC(Cc2ccc(C(F)(F)P(=O)(O)O)cc2)(C(=O)OCc2ccccc2)C(=O)OCc2ccccc2)cc1	–	–
0.8 µM	> 50	6.63 µM	–	–	O=C(O)c1ccc(CC(Cc2ccc(C(F)(F)P(=O)(O)O)cc2)(C(=O)c2ccccc2)c2ccccc2)cc1 (configuration not stated)	–	–
0.36 µM	> 50	2.4 µM	–	–	O=C(c1ccccc1)C(Cc1ccc(C(F)(F)P(=O)(O)O)c(Cl)c1)c1ccccc1 (configuration not stated)	–	–
0.04 µM	> 50	1.9 µM	–	–	O=C(OCc1ccccc1)C(Cc1ccc(C(F)(F)C(=O)O)cc1)(Cc1ccc(C(F)(F)P(=O)(O)O)cc1)C(=O)OCc1ccccc1	–	–
2 µM	> 50	16 µM	–	–	O=C(c1ccccc1)C(Cc1ccc(C(F)(F)P(=O)(O)O)cc1)c1ccccc1 (configuration not stated)	–	–
16 µM	> 50	–	–	Not Active	O=C(c1ccccc1)C(Cc1ccc(C(F)(F)P(=O)(O)O)c(-c2ccccc2)c1)c1ccccc1 (configuration not stated)	–	–

SMILES	IC50 [1]	IC50 [2] [µM]	IC50 [3]	half-life [4] [min]	IC50 [7]	bioavailability [5] [%]	Cmax [6] [µM]
O=C(c1ccccc1)C(Cc1ccc(C(F)(F)P(=O)(O)O)c(Br)c1)c1ccccc1 (configuration not stated)	–	> 50	1.22 µM	–	–	13	35
